pIC50: −log10 of the molar value.

Data on seven compounds can be found in patent EP4786469A1, “TRIAZOLE-CONTAINING COMPOUND, AND PREPARATION METHOD AND USE THEREFOR” (Tuojie Biotech (Shanghai) Co., Ltd., priority 2023, dated 2025).

Sequence of human recombinant αvβ6 protein (P06756 31-992 limits assumed): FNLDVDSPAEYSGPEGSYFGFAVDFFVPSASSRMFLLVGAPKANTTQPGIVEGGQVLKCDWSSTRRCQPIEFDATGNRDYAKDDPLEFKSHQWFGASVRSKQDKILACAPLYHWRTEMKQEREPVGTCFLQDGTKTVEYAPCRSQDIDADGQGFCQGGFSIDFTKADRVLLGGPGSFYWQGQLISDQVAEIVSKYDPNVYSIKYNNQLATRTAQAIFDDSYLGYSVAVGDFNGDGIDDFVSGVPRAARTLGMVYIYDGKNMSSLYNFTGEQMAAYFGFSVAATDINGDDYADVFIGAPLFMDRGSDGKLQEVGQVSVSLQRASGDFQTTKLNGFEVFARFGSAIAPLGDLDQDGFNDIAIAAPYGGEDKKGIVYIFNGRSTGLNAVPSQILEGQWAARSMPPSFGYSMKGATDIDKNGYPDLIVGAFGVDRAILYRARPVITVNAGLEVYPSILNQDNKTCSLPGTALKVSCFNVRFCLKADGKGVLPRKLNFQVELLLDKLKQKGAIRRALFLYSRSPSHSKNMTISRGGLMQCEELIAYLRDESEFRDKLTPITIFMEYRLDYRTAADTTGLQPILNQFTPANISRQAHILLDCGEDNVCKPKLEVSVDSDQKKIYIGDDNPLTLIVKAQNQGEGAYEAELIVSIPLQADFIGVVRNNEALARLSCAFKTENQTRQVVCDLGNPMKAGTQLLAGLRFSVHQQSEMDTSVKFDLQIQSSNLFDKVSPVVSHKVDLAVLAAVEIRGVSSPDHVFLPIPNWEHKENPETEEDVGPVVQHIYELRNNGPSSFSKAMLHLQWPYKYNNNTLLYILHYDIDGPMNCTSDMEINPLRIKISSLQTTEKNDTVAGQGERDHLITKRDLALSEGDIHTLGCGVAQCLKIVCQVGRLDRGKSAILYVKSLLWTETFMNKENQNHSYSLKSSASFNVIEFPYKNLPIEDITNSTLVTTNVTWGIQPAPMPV
Sequence of human recombinant αvβ6 protein (P18564 22-707 limits assumed): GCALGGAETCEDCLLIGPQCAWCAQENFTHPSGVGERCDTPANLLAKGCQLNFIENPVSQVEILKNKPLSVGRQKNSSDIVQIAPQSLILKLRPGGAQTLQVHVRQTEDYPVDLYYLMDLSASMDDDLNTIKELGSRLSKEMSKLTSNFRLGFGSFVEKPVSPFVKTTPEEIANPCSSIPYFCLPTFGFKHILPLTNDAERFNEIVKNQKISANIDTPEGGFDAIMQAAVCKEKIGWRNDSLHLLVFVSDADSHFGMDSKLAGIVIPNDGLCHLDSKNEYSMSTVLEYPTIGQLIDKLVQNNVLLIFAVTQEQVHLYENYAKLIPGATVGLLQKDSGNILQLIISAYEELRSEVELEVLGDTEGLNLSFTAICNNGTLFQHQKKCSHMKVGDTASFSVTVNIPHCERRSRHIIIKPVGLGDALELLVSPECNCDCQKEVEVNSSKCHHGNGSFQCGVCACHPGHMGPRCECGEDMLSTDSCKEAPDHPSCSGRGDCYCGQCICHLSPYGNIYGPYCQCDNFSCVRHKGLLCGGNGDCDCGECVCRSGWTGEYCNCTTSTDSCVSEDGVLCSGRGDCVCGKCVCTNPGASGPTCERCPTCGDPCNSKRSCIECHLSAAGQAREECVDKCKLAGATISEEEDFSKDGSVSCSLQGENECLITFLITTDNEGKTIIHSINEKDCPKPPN

The first assay concerns the target human recombinant αvβ6 protein (Homo sapiens, UniProt P06756+P18564). The assay is described as follows: αvβ6 binding assay using fluorescence polarization (FP), competition with a fluorescently labeled RGD peptide. The conditions noted are these: 12 concentration points, highest 10 µM, read-out: αvβ6 IC50. Here is the method:
αvβ6 binding assay using fluorescence polarization (FP) method The analysis was based on competition with a fluorescently labeled RGD peptide for binding to αvβ6. The binding abilities of the test compounds were evaluated and screened according to FP value changes.
The test compounds (3.5 µL) were added to a 384-well black plate. For each test compound, 12 concentration points were set. The highest concentration was 10 µM, and was serially diluted 3-fold. DMSO control wells were used to determine the maximum signal, and 500 nM compound CWHM-12 [drawing 318]
HY-18644) control wells were used as the minimum signal.Then, 3.5 µL of a 4× human recombinant αvβ6 protein working solution (Acrobiosystem) was added. After 15 min of incubation at room temperature, 7 µL of a 2× fluorescent RGD peptide solution (Sangon Biotech) was added to each well. After 1 h of incubation at room temperature, FP signals were read using Envision. GraphPad Prism was used to fit inhibition curves and calculate IC50 values.
The IC50 values (Z factor > 0.5) were calculated using the following formula: Curve fitting formula: Y = Bottom + (Top - Bottom)/(1 + 10^((LogIC50 - X) × Hill Slope)) X: logarithmic value of inhibitor concentration; Y: inhibition percentage; Bottom: minimum response; Top: maximum response; Hill Slope: curve slope. Table 1. Data on the abilities of the compounds (III-h')-(III-m') of the present disclosure to bind to αvβ6
As for `Cc1ccnc(NCCCC(=O)NCC(=O)N[C@@H](CC(=O)O)c2ccc(-c3ccc(OCCOCCOCCOCCOCCN=[N+]=[N-])c4ccccc34)cc2)c1` [SM6.1-αvβ6, reference compound], the pIC50 was 8.80.

Take `[N-]=[N+]=NCCOCCOCCOCCOCCOc1ccc(-c2ccc([C@H](CC(=O)O)NC(=O)CNC(=O)CCCNc3cc4c(cn3)CCCC4)cc2)c2ccccc12` [III-m']: the pIC50 was 8.83.

On to `[N-]=[N+]=NCCOCCOCCOCCOCCOc1ccc(-c2ccc([C@H](CC(=O)O)NC(=O)CNC(=O)CCCc3ccc4c(n3)NCCC4)cc2)c2ccccc12` [III-k'], for which the pIC50 was 8.64.

As to `[N-]=[N+]=NCCOCCOCCOCCOCCOc1ccc(-c2ccc([C@H](CC(=O)O)NC(=O)CNC(=O)CCc3ccc4c(n3)NCCC4)cc2)c2ccccc12` [III-l'], the pIC50 was 8.78.

Still in this assay, the particulars now being: read-out: αvβ6 IC50, 12 concentration points, highest 10 µM.
As to `[N-]=[N+]=NCCOCCOCCOCCOCCOc1ccc(-c2ccc([C@H](CC(=O)O)NC(=O)CNC(=O)CCCNc3nccs3)cc2)c2ccccc12` [III-j'], the pIC50 was 8.70.

Turning to `Cc1ccnc(NCCNC(=O)NCC(=O)N[C@@H](CC(=O)O)c2ccc(-c3ccc(OCCOCCOCCOCCOCCN=[N+]=[N-])c4ccccc34)cc2)c1` [III-i'], the pIC50 was 8.61.

In the case of `Cc1ccnc(NCCOC(=O)NCC(=O)N[C@@H](CC(=O)O)c2ccc(-c3ccc(OCCOCCOCCOCCOCCN=[N+]=[N-])c4ccccc34)cc2)c1` [III-h'], the pIC50 is 9.07.
